For 24 compounds, IC50 results are on record in patent publication US12098154B2, “Inhibitors of cyclin-dependent kinases” (Dana-Farber Cancer Institute, Inc., priority 2015, dated 2024).

For one assay, the target named is CDK9/CycT (Homo sapiens, UniProt P50750). Briefly: CDK9/CycT inhibition (Tables A1, A2). Format: biochemical.
Another assay concerns Jurkat cells. As to the kind of experiment: Jurkat proliferation assay (CellTiter-Glo). As to conditions: Homo sapiens, Jurkat; read-out: Jurkat IC50. Type of assay: cell-based. As to the method: Jurkat cells were seeded at a density of 25,000 cells/well in 96-well plates. Cells were then treated with the indicated compounds in a 10-pt dose escalation format from 1 nM to 10 μM or DMSO control for 72 hours. After 72 hours, the cells were assayed using CellTiter-Glo Luminescent Cell Viability Assay (Promega) to determine cell viability by measuring the amount of ATP present in each sample cell population, which is an indicator of cell metabolic activity. […] All data points were performed in biological triplicate. Error bars are +/−SD.
Jurkat cells were seeded at a density of 25,000 cells/well in 96-well plates. Cells were then treated with the indicated compounds in a 10-pt dose escalation format from 1 nM to 10 μM or DMSO control for 72 hrs. After 72 hrs, cells were assayed using CellTiter-Glo Luminescent Cell Viability Assay (Promega) to determine cell viability by measuring the amount of ATP present in each sample cell population, which is an indicator of cell metabolic activity. […] All data points were performed in biological triplicate. Error bars are +/−SD.
A general note: ATP-based viability assays read luminescence as a measure of living cells.

The target of the next assay is CDK7/CycH (Homo sapiens, UniProt P50613). As to the kind of experiment: CDK7/CycH inhibition (Tables A1, A2). Format: biochemical.
CDK7/CycH, sequence (P50613 whole entry): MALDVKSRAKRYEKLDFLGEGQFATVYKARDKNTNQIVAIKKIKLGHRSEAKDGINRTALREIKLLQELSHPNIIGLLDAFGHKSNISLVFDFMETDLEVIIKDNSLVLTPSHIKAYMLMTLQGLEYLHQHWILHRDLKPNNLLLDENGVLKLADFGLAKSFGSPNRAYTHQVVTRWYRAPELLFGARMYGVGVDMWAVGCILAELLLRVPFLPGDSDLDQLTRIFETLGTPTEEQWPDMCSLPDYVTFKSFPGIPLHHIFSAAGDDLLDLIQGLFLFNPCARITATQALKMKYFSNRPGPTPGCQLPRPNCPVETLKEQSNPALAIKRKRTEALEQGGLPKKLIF
CDK7/CycH, sequence (P51946 whole entry partner): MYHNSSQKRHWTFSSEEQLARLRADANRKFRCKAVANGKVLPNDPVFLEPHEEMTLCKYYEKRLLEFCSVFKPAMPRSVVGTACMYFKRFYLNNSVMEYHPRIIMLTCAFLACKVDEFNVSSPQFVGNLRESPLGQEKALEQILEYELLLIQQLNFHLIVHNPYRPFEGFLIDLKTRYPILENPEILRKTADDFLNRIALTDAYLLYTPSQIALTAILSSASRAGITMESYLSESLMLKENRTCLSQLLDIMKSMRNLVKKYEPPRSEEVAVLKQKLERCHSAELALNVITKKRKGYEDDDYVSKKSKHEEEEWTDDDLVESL
The next assay deals with CDK2/CycA (Homo sapiens, UniProt P24941). Briefly: CDK2/CycA inhibition (Tables A1, A2). Type of assay: biochemical.

CDK9/CycT, sequence (P50750 whole entry): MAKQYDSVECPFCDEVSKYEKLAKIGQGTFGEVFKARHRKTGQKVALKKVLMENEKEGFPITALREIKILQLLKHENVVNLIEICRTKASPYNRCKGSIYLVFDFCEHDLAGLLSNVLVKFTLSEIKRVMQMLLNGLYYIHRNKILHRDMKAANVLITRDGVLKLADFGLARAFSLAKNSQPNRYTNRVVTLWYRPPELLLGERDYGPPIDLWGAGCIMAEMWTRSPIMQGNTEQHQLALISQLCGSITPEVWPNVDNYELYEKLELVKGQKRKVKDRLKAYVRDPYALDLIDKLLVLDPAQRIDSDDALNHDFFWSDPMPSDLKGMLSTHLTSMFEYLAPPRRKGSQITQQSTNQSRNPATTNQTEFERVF
CDK9/CycT, sequence (O60563 whole entry partner): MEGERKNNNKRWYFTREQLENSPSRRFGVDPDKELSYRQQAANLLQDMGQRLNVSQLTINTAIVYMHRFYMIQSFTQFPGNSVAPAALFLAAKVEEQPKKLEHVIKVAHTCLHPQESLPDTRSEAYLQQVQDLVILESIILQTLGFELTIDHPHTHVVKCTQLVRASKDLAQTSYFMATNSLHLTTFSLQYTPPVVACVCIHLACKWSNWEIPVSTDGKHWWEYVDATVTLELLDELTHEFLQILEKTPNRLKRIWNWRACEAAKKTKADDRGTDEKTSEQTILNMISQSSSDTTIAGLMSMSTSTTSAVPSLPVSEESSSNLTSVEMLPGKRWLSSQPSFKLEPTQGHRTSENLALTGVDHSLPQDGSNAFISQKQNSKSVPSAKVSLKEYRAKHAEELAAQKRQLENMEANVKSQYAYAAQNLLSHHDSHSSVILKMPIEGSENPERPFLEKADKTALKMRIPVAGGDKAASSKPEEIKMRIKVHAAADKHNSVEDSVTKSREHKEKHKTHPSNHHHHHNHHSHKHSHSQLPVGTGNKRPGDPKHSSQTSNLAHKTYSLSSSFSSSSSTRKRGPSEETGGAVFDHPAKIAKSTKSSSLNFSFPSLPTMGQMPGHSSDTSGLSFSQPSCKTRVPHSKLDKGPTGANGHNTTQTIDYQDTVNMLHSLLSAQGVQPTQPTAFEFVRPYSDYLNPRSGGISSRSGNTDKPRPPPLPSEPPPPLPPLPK

As a reminder, the IC50 is the concentration that inhibits the measured activity by half. Regarding `CC(C)n1cnc2c(Nc3cccc(NC(=O)c4ccc(NC(=O)/C=C/CN(C)C)cc4)c3)nc(N[C@H]3CC[C@H](N(C)C)CC3)nc21` [THZ-3-49-1, 4-((E)-4-(Dimethylamino)but-2-enamido)-N-(3-((2-(((1r,4r)-4-(dimethylamino)cyclohexyl)amino)-9-isopropyl-9H-purin-6-yl)amino)phenyl)benzamide], the IC50 amounted to 445 nM on CDK9/CycT, 4030 nM with Jurkat cells and 9.43 nM against CDK7/CycH.
Regarding `C=CC(=O)N[C@H]1CC[C@H](Nc2cc(N3CCCC[C@H]3CCO)nc3c(CC)cnn23)CC1` [MFH-1-175-1, N-((1S,4r)-4-((3-ethyl-5-((S)-2-(2-hydroxyethyl)piperidin-1-yl)pyrazolo[1,5-a]pyrimidin-7-yl)amino)cyclohexyl)acrylamide], the IC50 against CDK9/CycT is 48.2 nM; on CDK2/CycA, 1080 nM; against CDK7/CycH, 442 nM.
As for `C=CC(=O)Nc1ccc(Nc2cc(N3CCCC[C@H]3CCO)nc3c(CC)cnn23)cc1` [MFH-1-187-1, (S)—N-(4-((3-ethyl-5-(2-(2-hydroxyethyl)piperidin-1-yl)pyrazolo[1,5-a]pyrimidin-7-yl)amino)phenyl)acrylamide], the IC50 against CDK9/CycT was determined as 23.5 nM; against CDK2/CycA, 171 nM; against CDK7/CycH, 279 nM.
For `C=CC(=O)NC1CCCC(Nc2nc(N[C@H]3CC[C@H](N(C)C)CC3)nc3c(CC)cnn23)C1` (stereo partly shown) [MFH-2-78-1, N-(3-((2-(((1r,4r)-4-(dimethylamino)cyclohexyl)amino)-8-ethylpyrazolo[1,5-a][1,3,5]triazin-4-yl)amino)cyclohexyl)acrylamide] the same measures were 68.7 nM, over 1000 nM and 842 nM.
`C=CC(=O)Nc1cccc(CNc2cc(N3CCCC[C@H]3CCO)nc3c(CC)cnn23)c1` [MFH-1-49-1, (S)—N-(3-(((3-ethyl-5-(2-(2-hydroxyethyl)piperidin-1-yl)pyrazolo[1,5-a]pyrimidin-7-yl)amino)methyl)phenyl)acrylamide]: the 50% inhibitory concentration (IC50) at CDK2/CycA amounted to 27.6 nM; against CDK7/CycH, 165 nM.
In the case of `C=CC(=O)Nc1cccc(Nc2nc(N[C@H]3CC[C@@H](N(C)C)CC3)nc3c2ncn3C(C)C)c1` [E-1(SB1-E-14), N-(3-(2-((1s,4s)-4-(Dimethylamino)cyclohexylamino)-9-isopropyl-9H-purin-6-ylamino)phenyl)acrylamide], the IC50 at CDK9/CycT was 1360 nM; on CDK2/CycA it was 735 nM; at CDK7/CycH it was 254 nM.
On the same counts, the results for `C=CC(=O)Nc1cccc(CNc2nc(N[C@H]3CC[C@H](N(C)C)CC3)nc3c(CC)cnn23)c1` [MFH-2-67-1, N-(3-(((2-(((1r,4r)-4-(dimethylamino)cyclohexyl)amino)-8-ethylpyrazolo[1,5-a][1,3,5]triazin-4-yl)amino)methyl)phenyl)acrylamide] are 103 nM, 1020 nM and 23.7 nM.
On the same counts, the results for `C=CC(=O)Nc1ccc(C(=O)Nc2cccc(Nc3cc(N4CCCCC4CCO)nc4c(CC)cnn34)c2)cc1` (stereo not shown) [SB1-E-24, 4-Acrylamido-N-(3-(3-ethyl-5-(2-(2-hydroxyethyl)piperidin-1-yl)pyrazolo[1,5-a]pyrimidin-7-ylamino)phenyl)benzamide] are 140 nM, 1260 nM and 774 nM.
On the same counts, the results for `C=CC(=O)Nc1cccc(Nc2cc(N3CCCC(N)C3)nc3c(CC)cnn23)c1` (stereo not shown) [MFH-3-140-1, N-(3-(5-(3-aminopiperidin-1-yl)-3-ethylpyrazolo[1,5-a]pyrimidin-7-ylamino)phenyl)acrylamide] are 465 nM, 4190 nM and 356 nM.
For the compound `C=CC(=O)NCc1cccc(Nc2nc(N[C@H]3CC[C@H](N(C)C)CC3)nc3c2ncn3C(C)C)c1` [SB1-E-16, N-(3-(2-((1r,4r)-4-(Dimethylamino)cyclohexylamino)-9-isopropyl-9H-purin-6-ylamino)benzyl)acrylamide], the IC50 at CDK9/CycT worked out at 116 nM; on CDK2/CycA, 30.3 nM; against CDK7/CycH, 255 nM.
For `C=CC(=O)Nc1ccc(C(=O)N2CCCC(Nc3cc(NC4CCC(N(C)C)CC4)nc4c(CC)cnn34)C2)cc1` (stereo not shown) [THZ-4-148-1] the same measures were 1710 nM, 7050 nM and over 10000 nM.
For `C=CC(=O)Nc1ccc(C(=O)Nc2cccc(Nc3cc(N[C@H]4CC[C@H](N(C)C)CC4)nc4c(CC)cnn34)c2)cc1` [SB1-E-22, 4-Acrylamido-N-(3-(5-((1r,4r)-4-(dimethylamino)cyclohexylamino)-3-ethylpyrazolo[1,5-a]pyrimidin-7-ylamino)phenyl)benzamide] the same measures were 88.9 nM, 28300 nM and 246 nM.
`C=CC(=O)Nc1cccc(Nc2cc(N3CCCC[C@@H]3CCO)nc3c(CC)cnn23)c1` [MFH-1-143-1, (R)—N-(3-(3-ethyl-5-(2-(2-hydroxyethyl)piperidin-1-yl)pyrazolo[1,5-a]pyrimidin-7-ylamino)phenyl)acrylamide]: the IC50 against CDK9/CycT was 859 nM; on CDK2/CycA, over 10000 nM; on CDK7/CycH, 2510 nM.
On the same counts, the results for `C=CC(=O)Nc1ccc(C(=O)N2CCCC(Nc3nc(N4CCCCC4CCO)nc4c3ncn4C(C)C)C2)cc1` (stereo not shown) [THZ-4-149-1] are 2290 nM, over 1000 nM and 4430 nM.
With `C=CC(=O)Nc1cccc(CNc2cc(N3CCCC[C@@H]3CCO)nc3c(CC)cnn23)c1` [MFH-1-56-1, (R)—N-(3-((3-ethyl-5-(2-(2-hydroxyethyl)piperidin-1-yl)pyrazolo[1,5-a]pyrimidin-7-ylamino)methyl)phenyl)acrylamide], the half-maximal inhibitory concentration (IC50) against CDK2/CycA came to 1530 nM; on CDK7/CycH, 345 nM.
As to `C=CC(=O)Nc1ccc(C(=O)Nc2cccc(Nc3cc(N[C@H]4CC[C@H](N(C)C)CC4)nc4c(C(C)C)cnn34)c2)cc1` [SB1-E-25, 4-Acrylamido-N-(3-(5-((1r,4r)-4-(dimethylamino)cyclohexylamino)-3-isopropylpyrazolo[1,5-a]pyrimidin-7-ylamino)phenyl)benzamide], the concentration for half-maximal inhibition (IC50) at CDK9/CycT amounted to 387 nM; at CDK2/CycA, 33400 nM; on CDK7/CycH, 410 nM.
On the same counts, the results for `C=CC(=O)NC1CCCC(Nc2cc(N3CCCC[C@H]3CCO)nc3c(CC)cnn23)C1` (stereo partly drawn) [MFH-1-167-1, N-(3-(3-ethyl-5-((S)-2-(2-hydroxyethyl)piperidin-1-yl)pyrazolo[1,5-a]pyrimidin-7-ylamino)cyclohexyl)acrylamide] are 24.7 nM, 328 nM and 739 nM.
On the same counts, the results for `C=CC(=O)Nc1ccc(C(=O)Nc2cccc(Nc3nc(N4CCCCC4CCO)nc4c(CC)cnn34)c2)cc1` (stereo not shown) [SB1-E-19, 4-Acrylamido-N-(3-(8-ethyl-2-(2-(2-hydroxyethyl)piperidin-1-yl)pyrazolo[1,5-a][1,3,5]triazin-4-ylamino)phenyl)benzamide] are 123 nM, 295 nM and 383 nM.
On the same counts, the results for `C=CC(=O)Nc1cccc(Nc2cc(N3CCCC[C@H]3CCO)nc3c(CC)cnn23)c1` [MFH-1-141-1, (S)—N-(3-(3-ethyl-5-(2-(2-hydroxyethyl)piperidin-1-yl)pyrazolo[1,5-a]pyrimidin-7-ylamino)phenyl)acrylamide] are 23.9 nM, 932 nM and 1210 nM.
Take `C=CC(=O)Nc1ccc(C(=O)Nc2cccc(Nc3nc(N[C@H]4CC[C@H](N(C)C)CC4)nc4c3ncn4C(C)C)c2)cc1` [THZ-5-38-1, 4-Acrylamido-N-(3-((2-((trans-4-(dimethylamino)cyclohexyl)amino)-9-isopropyl-9H-purin-6-yl)amino)phenyl)benzamide]: the half-maximal inhibitory concentration (IC50) on CDK9/CycT stood at 220 nM; against CDK2/CycA, 563 nM; against CDK7/CycH, 25.9 nM.
On the same counts, the results for `C=CC(=O)Nc1cccc(Nc2nc(N3CCCC[C@H]3CCO)nc3c(CC)cnn23)c1` [MFH-2-53-1, (S)—N-(3-(8-ethyl-2-(2-(2-hydroxyethyl)piperidin-1-yl)pyrazolo[1,5-a][1,3,5]triazin-4-ylamino)phenyl)acrylamide] are 61.6 nM, 53.6 nM and 1100 nM.
On the same counts, the results for `C=CC(=O)NC1CCCC(Nc2nc(N[C@H]3CC[C@H](N(C)C)CC3)nc3c2ncn3C(C)C)C1` (stereo partly shown) [SB1-E-15, N-(3-(2-((1r,4r)-4-(Dimethylamino)cyclohexylamino)-9-isopropyl-9H-purin-6-ylamino)cyclohexyl)acrylamide] are 58.9 nM, 1480 nM and 763 nM.
As for `C=CC(=O)N[C@H]1CC[C@@H](Nc2cc(N3CCCC[C@H]3CCO)nc3c(CC)cnn23)CC1` [MFH-1-169-1, N-((1R,4s)-4-((3-ethyl-5-((S)-2-(2-hydroxyethyl)piperidin-1-yl)pyrazolo[1,5-a]pyrimidin-7-yl)amino)cyclohexyl)acrylamide], the half-maximal inhibitory concentration (IC50) on CDK9/CycT worked out at 135 nM; on CDK2/CycA, 3880 nM; against CDK7/CycH, 7250 nM.
For `C=CC(=O)Nc1ccc(C(=O)N2CCCC(Nc3cc(N4CCCC(N)C4)nc4c(CC)cnn34)C2)cc1` (stereo not shown) [THZ-4-141-1] the same measures were 3570 nM, over 1000 nM and 3600 nM.
